Reference: patent publication US4939256A, “Novel platinum complex, antineoplastic agent containing the same, and intermediate therefor” (Kanebo Ltd., priority 1988, dated 1990)

Columns and labels:
Leukemia P388 = test: Experiment 1: Test of antitumor activity (increase in life span of tumor-bearing mice); type: in vivo, BDF1 male mice; conditions: intraperitoneal, P388 in BDF1 mice; for Increase in life span (ILS %): observed until 30th day
Experimental: (a) Animals: BDF1 male mice (6 week age, weighing 22 to 25 g, 4 animals per each group)
(b) Tumor cells: Leukemia P388
Tumor cells (1×10^6 per mouse) were intraperitoneally inoculated into mice. After 24 hours, a solution of each test compound in physiological saline solution was intraperitoneally administered to the mice. In control mice, only physiological saline solution was intraperitoneally administered.
Survival days of the mice was observed until 30th day after the inoculation of tumor cells. Mean survival days (X) in the mice administered with test compound and mean survival days (Y) in the control mice were measured, and the increase in life span (ILS %) was calculated by the following equation: [formula]

[1] = prior art, clinically used; cited from earlier work
kidney = test: Experiment 3: Side effect on kidney (blood urea nitrogen value); type: in vivo, BDF1 male mice; conditions: intraperitoneal, 4th day after administration, versus control mice
Experimental: It was studied in the blood urea nitrogen value (BUN value) as an index.
(§1) (a) Animal: BDF1 male mice (6 week age, weighing 22-25 g, 5 animals per each group)
Each test compound was dissolved in a physiological saline solution, and the solution (0.1 ml/10 g body weight) was intraperitoneally administered. In the control mice, only the physiological saline solution (0.1 ml/10 g body weight) was intraperitoneally administered. On the 4th day after the administration, the test compound-administered mice and the control mice were bleeded from the femoral artery, and the collected blood was centrifuged at 3,000 r.p.m. at 4° C. for 15 minutes to give a test serum. BUN value in the test serum was measured by a urease indophenol method using a kit for measuring urea nitrogen (Urea NB-Test Wako, manufactured by Wako Pure Chemical Industries, Ltd.). That is, the above test serum (20 μl) was taken in a test tube and thereto was added color reagent A [a mixture of a urease solution (one part by volume) and phosphate buffer (pH 7.0, 20 parts by volume), 2.0 ml], and the mixture was mixed well and incubated at 37° C. for 15 minutes. […]
The absorbance of the standard solution and test solution was measured at 570 nm with a spectrophotometer with reference to the blank solution as a control, and BUN value in the test serum was calculated by the following equation: [formula] […]

BDF1 male mice = test: Experiment 4: Acute toxicity (LD50); type: in vivo; conditions: intraperitoneal, until 14th day, Weil method
Experimental: as §1
Each test compound was dissolved or suspended in a physiological saline solution, and the solution or suspension (0.1 ml/10 g body weight) was intraperitoneally administered to mice. The number of mice that died was counted until 14th day after administration of test compound, and the acute toxicity (LD50) was calculated by Weil method.

[2] = tested on: Cisplatin-resistant L1210 cells (L1210/DDP) and L1210 cells; test: Experiment 2: Effects on cisplatin-resistant tumor cells (growth inhibition, resistance index); type: cell-based; conditions: L1210/DDP versus L1210, from IC50 after 48 hours; for Resistance index, maximum: maximum of 2 to 4 tests; for Resistance index, Mean: mean of 2 to 4 tests; for Resistance index, minimum: minimum of 2 to 4 tests
Experimental: 2. Cisplatin-resistant L1210 cells (hereinafter, referred to as L1210/DDP), which is available from Cancer Chemotherapy Center, Japanese Foundation for Cancer Research
RPMI-1640 medium containing 10% (v/v) fetal bovine serum, which was prepared as follows:
RPMI-1640 (manufactured by GIBCO) (10.4 g), sodium hydrogen carbonate (1.3 g), streptomycin sulfate ([…]), penicillin G potassium ([…]) and a 1% aqueous solution of β-mercaptoethanol (40 μl) were dissolved in distilled water (one liter). To this mixture (90 parts by volume) was added fetal bovine serum (manufactured by GIBCO) (10 parts by volume) to give RPMI-1640 medium containing 10% (v/v) fetal bovine serum (hereinafter, referred to as "serum-containing RPMI-1640 medium").
L1210 cells or L1210/DDP cells were added to the serum-containing RPMI-1640 medium to prepare a cell suspension (3×10^5 cells/ml). The cell suspension (each 1 ml) was seeded onto a microplate (Falcon 3047, manufactured by Falcon) and cultivated in air containing 5% CO2 gas at 37° C. (one group, 3 wells). After cultivating for 24 hours, a solution of each test compound (1 ml) (which was prepared by dissolving each test compound in the serum-containing RPMI-1640 medium in various concentrations) was added to the medium, and the mixture was cultivated under the same conditions for 48 hours. After the cultivation, the number of viable cells was counted by Trypan Blue exclusion test method, and the mean number of viable cells in each group was calculated. Besides, in the control group, the above was repeated by using the serum-containing RPMI-1640 medium instead of the solution of test compound, and the mean number of viable cells in the control group was calculated likewise. From the mean number of viable cells in various concentration of test compound and the mean number of viable cells in the control group, the concentration required for 50% inhibition of growth (IC50) was calculated by probit method. Then, the resistance index of test compound was calculated by the following equation: [formula]
The above test was repeated for 2 to 4 times, and the mean resistance index was obtained.

| Compound | Increase in life span (ILS %) (Leukemia P388; 25 mg/kg) | Increase in life span (ILS %) (Leukemia P388; 50 mg/kg) | Increase in life span (ILS %) (Leukemia P388; 100 mg/kg) | dose showing maximum increase in life span in Experiment 1 (Leukemia P388) | other results |
| --- | --- | --- | --- | --- | --- |
| O=C1C[O][Pt]2([NH]C3CC[N]2C3)[O]1 (racemic) [Platinum complex A-2, α-glycolato-(3RS)-3-aminopyrrolidine platinum (II)] | 108% | 172% | 115% | 50 mg/kg |  |
| N.N.[Cl][Pt][Cl] [Cisplatin, cisdiamminedichloroplatinum (II), reference compound] |  |  |  | 10 mg/kg | Increase in life span (ILS %) (Leukemia P388; 5 mg/kg): 108%; Increase in life span (ILS %) (Leukemia P388; 10 mg/kg): 167%; Increase in life span (ILS %) (Leukemia P388; 20 mg/kg): -11%; antineoplastic activity, in words [1]: excellent antineoplastic activity; Rate of change of BUN value (%) (kidney; 10 mg/kg): +106%; Rate of change of BUN value (%) (kidney; 15 mg/kg): +128% |
| a mixture of α-glycolato-(3RS)-3-aminopiperidine platinum (II) (Isomer b-1) and β-glycolato-(3RS)-3-aminopiperidine platinum (II) (Isomer b-2) [Platinum complex B-1] | 131% | 174% | -45% | 50 mg/kg | LD50 (BDF1 male mice): 57.0 mg/kg; Resistance index, maximum [2]: 5.4; Resistance index, Mean [2]: 4.3; Resistance index, minimum [2]: 3.2 |
| a mixture of α-glycolato-(3RS)-3-aminopyrrolidine platinum (II) (Isomer a-1) and β-glycolato-(3RS)-3-aminopyrrolidine platinum (II) (Isomer a-2) [Platinum complex A-1] | 74% | 167% | -43% | 50 mg/kg |  |
| a mixture of α-glycolato-(3RS)-3-aminopyrrolidine platinum (II) (Isomer a-1) and β-glycolato-(3RS)-3-aminopyrrolidine platinum (II) (Isomer a-2) [Platinum complex A-3] | 111% | 170% | 26% | 50 mg/kg | LD50 (BDF1 male mice; 20160 min): 107.0 mg/kg; Resistance index, maximum ([2]; 2880 min): 4.6; Resistance index, Mean ([2]; 2880 min): 4.6; Resistance index, minimum ([2]; 2880 min): 4.6 |
